Laboratory results as given in US20240300894A1, “PRODRUGS OF KV7 CHANNEL OPENERS” (Xyzagen, Inc., priority 2021, published 2024).

Key:
[1] = Pharmacokinetics of ezogabine prodrugs in mouse (SC, PO); conditions: male mice, PO 20 mg/kg, plasma
Description: (§1) Blood was diluted by 10% with these stabilizers.
(§2) Extraction of the molecules was conducted by taking a 50 uL aliquot of plasma and adding 200 uL of acetonitrile containing 200 ng/mL tolbutamide as the internal standard. Samples were precipitated in a 96 well plate, centrifuges and an aliquot transferred to a new plate, dried down under heat and nitrogen and then reconstituted in the initial mobile phase conditions of the LC-MS/MS method. […] A standard curve was prepared from 5000 ng/mL to 1 ng/mL for each analyte. Concentration data from the bioanalytical run was analyzed by Phoenix Winnonlin version 8 for noncompartmental sparse sampling PK analysis, plotting of concentration time curves and tabulation of PK parameters.
Animals were asphyxiated by carbon dioxide gas, blood was collected by cardiac stick and they were euthanized by cervical dislocation.

[2] = Pharmacokinetics of ezogabine prodrugs in rat (IV, IM, PO); conditions: male Sprague Dawley rats, PO 20 mg/kg
Description: as §1
as §2, with “noncompartmental” for “noncompartmental sparse sampling”
150 uL of blood were collected at predesignated time points. At completion of the study animals were asphyxiated by carbon dioxide gas and exsanguinated for euthanasia.

[3] = Acid and organic solution stability, HPLC-UV 250 nm; conditions: for Colour of solution: by Day 9; for Degradation / conversion to ezogabine in solution: up to 3 weeks, acidic solutions and organic solvents; for Ezogabine Area: room temp., normal light
Description: An HPLC-UV Vis method was developed using 0.1% Formic acid in water as mobile phase A and 0.1% Formic acid in acetonitrile as mobile Phase B. A gradient method was developed ramping from 10% A to 90% B over 8 minutes and then returning to 10% A at 8.5 minutes on a 4.6×50 mm Zorbax C-18 column. Injections of 10 uL of stability solutions were injected for analyte detection.
[…] Aliquots were collected at serial time points and then diluted to a nominal concentration of 100 ug/mL for injection to the HPLC and 250 nm monitored by the diode array detector. Data at approximately 10 days is presented.
Aliquots were collected at serial time points and then diluted to a nominal concentration of 100 ug/mL for injection to the HPLC and 250 nm monitored by the diode array detector.
(§3) It was also evaluated at 2 N HCl at 37° C. Aliquots were collected at serial time points and then diluted to a nominal concentration of 100 ug/mL for injection to the HPLC and 250 nm monitored by the diode array detector.
as §3, §3, §3

[4] = in solvent, exposed to light; known; cited from earlier work
[5] = human, in vivo; cited from earlier work
[6] = Benchtop solution stability exposed to light, HPLC-UV 230 nm; type: physicochemical
Description: Compounds in solvent were left on the benchtop exposed to light for up to 7 days since it is known that Compound 1 will degrade with light within 3-7 days.
Stability was assessed by taking an aliquot from the solubility vials at each test day. A single replicate was injected for each test condition.
Samples were injected onto an HPLC system with an aqueous mobile phase and acetonitrile organic phase and compounds were separated on a C8 50×2 mm column. Wavelength 230 nm was monitored for absorption and integrated for peak area while the mass spectrometer was used to confirm mass. Samples were tested on Day 1 and on subsequent days through Day 7.

[7] = Drug concentration analysis after MES in CF-1 mice; conditions: for Plasma concentration of Compound 1 relative to administration of Compound 1 alone: CF-1, mouse, in vivo, ip
Description: (§4) Each male CF-1 mouse provided one data point in the MES assay and one data point in the concentration analysis. There were 8 mice per time point.

[8] = tested on: CCI model of neuropathic pain; assay: CCI model of neuropathic pain (pin prick, von Frey); type: in vivo, rat; conditions: male Sprague Dawley rats
Description: Compound 3 was tested for reversal of mechanical hypersensitivity to the pin prick test for hindlimb paw withdraw and the von Frey hairs for gram force mechanical allodynia in the CCI model of neuropathic pain. Male Sprague Dawley rats (n=8/group) were tested for baseline sensitivity on Day 1 (ipsilateral and contralateral paws) and administered XYG-203 orally; 40 mg/kg on Day 1, 20 mg/kg Day 3, 10 mg/kg Day 5, 5 mg/kg Day 7, 1 mg/kg Day 10 and baseline on Day 12. Mechanical hypersensitivity was tested 1 h after pretreatment. Data (mean±SD) were analyzed with a repeated measures ANOVA with Dunnet's adjustment for multiple comparisons.

[9] = Rat PK at equimolar dose to Ezogabine in 0.5% methylcellulose; conditions: for AUClast/D, analyte = dosed prodrug: male, rat, in vivo, 20 mg/kg; for Exposure of ezogabine compared with ezogabine itself (dose normalized AUC): rats, equimolar dose to Ezogabine (20 mg/kg)
Description: (§5) Blood samples were collected at the same time points over 24 hours to generate a concentration time profile. Two male rats were dosed per group. Plasma samples were analyzed by LC/MS/MS and the resulting concentration time profiles and PK parameters are provided.
as §5, §5

[10] = rat, 6 h, 1000 ng/mL
Description: Plasma was collected by the biomaterial vendor and kept frozen at −20° C.
The samples were analyzed by HPLC separation and mass spectrometry detection for prodrug amount, relative to a baseline time 0 control sample. Triplicate samples were generated at each time point and the peak area response was averaged and converted to a percent of baseline control.

MES Induced Seizures [11] = assay: Maximal electroshock (MES) test in SD rats; type: in vivo, rat; conditions: IM 75 mg/kg
Description: All treatments were at 0.083, 0.25, 0.5, 1, 2, 4, and 8 hours prior to the administration of MES test, where 6 seconds where 6 seconds without a seizure was considered protected.

[12] = tested on: 5% formalin intraplantar injection; assay: Formalin inflammatory model (hind paw flicks/licks); type: in vivo, mouse; conditions: 100 mg/kg in water SC 30 minutes before 5% formalin; both phases (0-10 min, 15-40 min)
Description: Compound 4 was assessed in the rat formalin inflammatory model. The number of flicks/licks of a male CD-1 mouse in the acute phase 0-10 minute and the inflammatory phase from 15-40 min after intraplantar administration of 50 μL of 5% formalin was recorded. […] Data is presented over the duration of the observation periods in 2 minute bins.

MES induced seizures [13] = assay: Maximal electroshock (MES) test in CF-1 mice; type: in vivo, mouse; conditions: IP 1.5, 3, 6, 12 and 24 mg/kg
Description: All treatments were administered 30 minutes prior to MES, except for Phenytoin which was administered 1 h prior.
as §4

CCOC(=O)Nc1ccc(NCc2ccc(F)cc2)cc1N [Compound 1, Ezogabine]
Cmax/D, analyte Cmpd 1 [1]: 148 ng/mL/mg/kg
AUClast/D, analyte Cmpd 1 ([1]; AUClast 6 h): 190 ng·h/mL/mg/kg
Cmax/D, analyte Cmpd 1 [2]: 44.8 ng/mL/mg/kg
AUClast/D, analyte Cmpd 1 ([2]; AUClast […] h): 280 ng·h/mL/mg/kg
Day by which solution was turning light purple (indicating degradation) ([3]; 5 mg/mL, acid solutions, room temperature): up to 2 Day
Day at which solution began turning purple ([3]; 5 mg/mL, organic solvent solutions, room temperature): ≥ 7 days
Time within which compound degrades with light [4]: 3 to 7 days
Adverse reaction rate: abnormal coordination [5]: 7%
Adverse reaction rate: aphasia [5]: 4%
Adverse reaction rate: asthenia [5]: 5%
Adverse reaction rate: balance disorder [5]: 4%
Adverse reaction rate: blurred vision [5]: 5%
Adverse reaction rate: confusional state [5]: 9%
Adverse reaction rate: diplopia [5]: 7%
Adverse reaction rate: disturbance in attention [5]: 6%
Adverse reaction rate: dizziness [5]: 23%
Adverse reaction rate: dysarthria [5]: 4%
Adverse reaction rate: fatigue [5]: 15%
Adverse reaction rate: gait disturbance [5]: 4%
Adverse reaction rate: memory impairment [5]: 6%
Adverse reaction rate: somnolence [5]: 22%
Adverse reaction rate: tremor [5]: 8%
Adverse reaction rate: vertigo [5]: 8%

CCOC(=O)Nc1ccc(NCc2ccc(F)cc2)cc1NC(=O)OC(C)OC(=O)C(C)C (stereo not shown) [Compound 3]
Stability in solvent ([6]; 0.1 N HCl, over 4 days): appears to be stable
Stability in solvent ([6]; ethanol and methanol): stable through 3 days
Plasma concentration of Compound 1 relative to administration of Compound 1 alone [7]: 5.5 fold
Mechanical hypersensitivity versus baseline ([8]; oral 5 mg/kg): 95% confidence intervals did not cross the baseline mean
Gram force to paw lift (von Frey) ([8]; oral 40 mg/kg, 1 h after pretreatment): increased the gram force to paw lift significantly
Reduction of latency of neuropathic ipsilateral paw withdrawal (pin prick) ([8]; oral 40 mg/kg, 1 h after pretreatment, p=0.0003): 9.2 s
AUClast/D, analyte = dosed prodrug [9]: 0.0136 ng·h/mL/mg/kg
Colour of solution ([3]; 5 mg/mL, 0.1 N HCl): turned a light tan
Colour of solution ([3]; 5 mg/mL, 1 N HCl): turned a golden yellow
Solution clear and colorless through ([3]; 5 mg/mL, organic solvents): ≥ 18 days
Degradation / conversion to ezogabine in solution ([3]; 5 mg/mL): converts to ezogabine under acidic conditions but does not in organic solvent
Ezogabine Area ([3]; 0.1N HCl, 433 h): 400 mAU
Ezogabine Area ([3]; Acetonitrile, 435 h): 51 mAU
Ezogabine Area ([3]; Ethanol, 390 h): 43 mAU
Ezogabine Area ([3]; Methanol, 435 h): 41 mAU

CCOC(=O)Nc1ccc(NCc2ccc(F)cc2)cc1NC(=O)[C@@H](N)CCCCN [Compound 4]
Stability in plasma [10]: stable through 6 hours
Plasma concentration of Compound 1 relative to administration of Compound 1 alone [7]: 9 fold
Protection from MES seizures (MES Induced Seizures [11]; 2 through 8 hours post dose): fully protected
Protection from MES seizures (MES Induced Seizures [11]; 1 h post dose): almost fully protected
AUClast/D, analyte = dosed prodrug [9]: 6.26 ng·h/mL/mg/kg
Exposure of ezogabine compared with ezogabine itself (dose normalized AUC) [9]: similar
Reduction in behavioral response (flicks/licks) compared to vehicle [12]: 50%
Solution remained clear and colorless through ([3]; 5 mg/mL, all test solutions): ≥ 18 days
Degradation / conversion to ezogabine in solution ([3]; 5 mg/mL): very little degradation to ezogabine
Ezogabine Area ([3]; 0.1N HCl, 269 h): 0 mAU
Ezogabine Area ([3]; 1N HCl, 269 h): 0 mAU
Ezogabine Area ([3]; 2N HCl, 269 h): 38 mAU
Ezogabine Area ([3]; Methanol, 437 h): 0 mAU
Ezogabine Area ([3]; PBS, 435 h): 0 mAU

CCOC(=O)Nc1ccc(NCc2ccc(F)cc2)cc1NC(=O)[C@H](N)CO [Compound 6]
AUClast/D, analyte = dosed prodrug [9]: 199 ng·h/mL/mg/kg
Exposure of ezogabine compared with ezogabine itself (dose normalized AUC) [9]: similar
Solution remained clear and colorless through ([3]; 5 mg/mL, all test solutions): ≥ 18 days
Degradation / conversion to ezogabine in solution ([3]; 5 mg/mL): very little degradation to ezogabine
Ezogabine Area ([3]; 1N HCl, 437 h): 58 mAU

CCOC(=O)Nc1ccc(NCc2ccc(F)cc2)cc1NC(=O)C[C@@H](CN)CC(C)C [Compound 28]
Complete protection against MES induced seizures (MES induced seizures [13]): None of the doses showed complete protection
Concentration of prodrug relative to ezogabine ([7]; CF-1 mice, IP, 30 minutes): present at higher concentrations than ezogabine
AUClast/D, analyte = dosed prodrug [9]: 83.0 ng·h/mL/mg/kg
Exposure of ezogabine compared with ezogabine itself (dose normalized AUC) [9]: lower exposure
Solution remained clear and colorless through ([3]; 5 mg/mL, acidic solutions): ≥ 18 days
Solution remained clear and colorless through ([3]; 5 mg/mL, acidic solutions and acetonitrile): ≥ 11 days
Degradation / conversion to ezogabine in solution ([3]; 5 mg/mL): degradation to ezogabine with increasing strength of the acidic solution
Ezogabine Area ([3]; 0.1N HCl, 440 h): 0 mAU
% Remaining ([3]; 440 h, 5 mg/mL): 92.0%
Ezogabine Area ([3]; Methanol, 440 h): 0 mAU
